Source: patent US10829520B2, “Beta-hairpin peptidomimetics” (POLYPHOR AG, priority 2015, dated 2020)
Where a SMILES comes first, the peptide text is derived from it. Bridges are numbered along the chain shown (N, C = ends). Roman numbers before positions name the chains, in order. [ ]: non-standard residue; d: D form. Tle = CC(C)(C)[C@H](N)C(=O)O; dDab = NCC[C@@H](N)C(=O)O; Nle = CCCC[C@H](N)C(=O)O; Orn = NCCC[C@H](N)C(=O)O; Dab = NCC[C@H](N)C(=O)O; Dap = NC[C@H](N)C(=O)O; Aib = CC(C)(N)C(=O)O; Sar = CNCC(=O)O

Assays:
Type in all cases: cell-based
[1] = system: Escherichia coli ATCC 25922; conditions: ATCC 25922
Summary of the method: (§1)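 Peptide stocks (1 mg/mL, water) were diluted two-fold into MH-II broth with 0.002% P-80 and mixed with approx. 10^6 CFU/mL bacteria. Plates were read visually after 18-20 hours at 35° C, with MIC expressed in μg/mL per CLSI.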

[2] = system: Acinetobacter baumannii DSM 30008; conditions: DSM 30008
Summary of the method: as §1

[3] = system: Acinetobacter baumannii 872842; conditions: 872842
[4] = system: Klebsiella pneumoniae 968733; conditions: 968733
[5] = system: Escherichia coli 926415; conditions: 926415
[6] = system: Klebsiella pneumoniae SSI #3010; conditions: SSI #3010
Summary of the method: as §1

[7] = system: Pseudomonas aeruginosa ATCC 27853; conditions: ATCC 27853
Summary of the method: as §1

[8] = system: human red blood cells (hRBC); assay: Hemolysis of human red blood cells; conditions: red cells of human, 1 h
Summary of the method: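 hRBC washed 3× PBS; 20% v/v, ~0.9×10^9 cells/mL final. Peptide 100 μg/mL, 1 h, 37° C., 300 rpm. Spin, supernatant diluted 8×, OD540. 0% = PBS + 0.001% acetic acid; 100% = 2.5% Triton X-100. % hemolysis = OD540 peptide/OD540 full lysis × 100.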

| SMILES | Escherichia coli ATCC 25922 MIC [1] [µg/mL] | Acinetobacter baumannii DSM 30008 MIC [2] [µg/mL] | Acinetobacter baumannii 872842 MIC [3] [µg/mL] | Klebsiella pneumoniae 968733 MIC [4] [µg/mL] | Escherichia coli 926415 MIC [5] [µg/mL] | Klebsiella pneumoniae SSI #3010 MIC [6] [µg/mL] | Pseudomonas aeruginosa ATCC 27853 MIC [7] [µg/mL] | Hemolysis at 100 μg/mL ([8]; 100 μg/mL) [%] | Hemolysis at 100 μg/mL [8]; 100 [%] |
| --- | --- | --- | --- | --- | --- | --- | --- | --- | --- |
| CCCC[C@@H]1NC(=O)[C@@H]2CCCN2C(=O)[C@H]2CCCN2C(=O)[C@H](C)NC(=O)[C@H](CO)NC(=O)[C@H](C(C)C)NC(=O)[C@@H](NC(=O)[C@@H](N)Cc2c[nH]c3ccccc23)CSSC[C@@H](C(=O)N(C)CC(=O)N[C@@H](CCN)C(=O)N[C@H](C(=O)N[C@@H](CCN)C(=O)N[C@H]2CCNC(=O)[C@H]([C@@H](C)O)NC(=O)[C@H](CCN)NC(=O)[C@H](CCN)NC(=O)[C@H](CC(C)C)NC(=O)[C@@H](CC(C)C)NC(=O)[C@H](CCN)NC2=O)[C@@H](C)O)NC(=O)[C@H](Cc2ccc(O)cc2)NC(=O)[C@H](CN)NC1=O [Ex. 141] (H-WCVSA[dP]P[Nle][Dap]YC[Sar][Dab]T[Dab][Dab][Dab][dL]L[Dab][Dab]T; disulfide 2-11; lactam 16-C) | 0.0625 | 0.125 | 0.125 | 2 | 0.125 | 0.125 | 2 | <1 |  |
| CCCC[C@@H]1NC(=O)[C@@H]2CCCN2C(=O)[C@H]2CCCN2C(=O)[C@H](CO)NC(=O)[C@H](C)NC(=O)[C@H](C(C)(C)C)NC(=O)[C@H](CCN)NC(=O)[C@H](Cc2c[nH]c3ccccc23)NC(=O)[C@H](CCN)NC(=O)[C@@H](CCN)NC(=O)[C@H](CC(=O)N[C@@H](CCN)C(=O)N[C@H]2CCNC(=O)[C@H]([C@@H](C)O)NC(=O)[C@H](CCN)NC(=O)[C@H](CCN)NC(=O)[C@H](CC(C)C)NC(=O)[C@@H](Cc3ccccc3)NC(=O)[C@H](CCN)NC2=O)NC(=O)[C@H](CCN)NC(=O)[C@H](Cc2ccc(O)cc2)NC(=O)[C@H](CO)NC1=O [Ex. 67] (I: cyclo([Nle]SY[Dab]D[dDab][Dab]W[Dab][Tle]AS[dP]P) / II: [Dab][Dab][Dab][dF]L[Dab][Dab]T; amide I:5-II:N; lactam II:2-II:C) | 1 | 1 | 4 | 2 | 2 | 2 | 1 |  | <1 |
| CCCC[C@@H]1NC(=O)[C@@H]2CCCN2C(=O)[C@H]2CCCN2C(=O)[C@H](CO)NC(=O)[C@H](C)NC(=O)[C@H](C(C)(C)C)NC(=O)[C@@H](NC(=O)[C@H](Cc2c[nH]c3ccccc23)NC(C)=O)CSSC[C@@H](C(=O)N[C@@H](CCN)C(=O)NC(C)(C)C(=O)N[C@@H](CCN)C(=O)N[C@H]2CCNC(=O)[C@H]([C@@H](C)O)NC(=O)[C@H](CCN)NC(=O)[C@H](CCN)NC(=O)[C@H](CC(C)C)NC(=O)[C@@H](Cc3ccccc3)NC(=O)[C@H](CCN)NC2=O)NC(=O)[C@H](Cc2ccc(O)cc2)NC(=O)[C@H](CO)NC1=O [Ex. 23] (Ac-WC[Tle]AS[dP]P[Nle]SYC[Dab][Aib][Dab][Dab][Dab][dF]L[Dab][Dab]T; disulfide 2-11; lactam 15-C) | 0.25 | 0.5 | 0.5 | 2 | 0.5 | 0.25 | 0.5 | 1 |  |
| CCCC[C@@H]1NC(=O)[C@@H]2CCCN2C(=O)[C@H]2CCCN2C(=O)[C@H](CO)NC(=O)[C@H](C)NC(=O)[C@H](C(C)(C)C)NC(=O)[C@H](CCN)NC(=O)[C@H](Cc2c[nH]c3ccccc23)NC(=O)[C@H](CCN)NC(=O)[C@@H](CCN)NC(=O)[C@H](CCC(=O)N[C@@H](CCN)C(=O)N[C@H](C(=O)N[C@@H](CCN)C(=O)N[C@H]2CCNC(=O)[C@H]([C@@H](C)O)NC(=O)[C@H](CCN)NC(=O)[C@H](CCN)NC(=O)[C@H](CC(C)C)NC(=O)[C@@H](Cc3ccccc3)NC(=O)[C@H](CCN)NC2=O)[C@@H](C)O)NC(=O)[C@H](CCN)NC(=O)[C@H](Cc2ccc(O)cc2)NC(=O)[C@H](CO)NC1=O [Ex. 7] (I: cyclo(W[Dab][Tle]AS[dP]P[Nle]SY[Dab]E[dDab][Dab]) / II: [Dab]T[Dab][Dab][Dab][dF]L[Dab][Dab]T; amide I:12-II:N; lactam II:4-II:C) | 0.125 | 1 | 1 | 2 | 0.25 | 0.25 | 0.25 |  | 1 |
| CCCC[C@@H]1NC(=O)[C@@H]2CCCN2C(=O)[C@H]2CCCN2C(=O)[C@H](CO)NC(=O)[C@H](C)NC(=O)[C@H](C(C)(C)C)NC(=O)[C@H](CCN)NC(=O)[C@H](Cc2c[nH]c3ccccc23)NC(=O)[C@H](CCN)NC(=O)[C@@H](CCN)NC(=O)[C@H](CC(=O)N[C@H](CCN)C(=O)N[C@H]2CCNC(=O)[C@H]([C@@H](C)O)NC(=O)[C@H](CCN)NC(=O)[C@H](CCN)NC(=O)[C@H](CC(C)C)NC(=O)[C@@H](Cc3ccccc3)NC(=O)[C@H](CCN)NC2=O)NC(=O)[C@H](CCN)NC(=O)[C@H](Cc2ccc(O)cc2)NC(=O)[C@H](CO)NC1=O [Ex. 66] (I: cyclo([Nle]SY[Dab]D[dDab][Dab]W[Dab][Tle]AS[dP]P) / II: [dDab][Dab][Dab][dF]L[Dab][Dab]T; amide I:5-II:N; lactam II:2-II:C) | 0.25 | 1 | 4 | 2 | 2 | 1 | 1 |  | 1 |
| CCCC[C@@H]1NC(=O)[C@@H]2CCCN2C(=O)[C@H]2CCCN2C(=O)[C@H](CO)NC(=O)[C@H](C)NC(=O)[C@H](C(C)(C)C)NC(=O)[C@H](CCN)NC(=O)[C@H](Cc2c[nH]c3ccccc23)NC(=O)[C@@H](NC(C)=O)CSSC[C@@H](C(=O)N[C@@H](CCN)C(=O)N[C@@H](CCN)C(=O)N[C@H]2CCNC(=O)[C@H]([C@@H](C)O)NC(=O)[C@H](CCN)NC(=O)[C@H](CCN)NC(=O)[C@H](CC(C)C)NC(=O)[C@@H](Cc3ccccc3)NC(=O)[C@H](CCN)NC2=O)NC(=O)[C@H](CCCN)NC(=O)[C@H](CCN)NC(=O)[C@H](Cc2ccc(O)cc2)NC(=O)[C@H](CO)NC1=O [Ex. 61] (Ac-CW[Dab][Tle]AS[dP]P[Nle]SY[Dab][Orn]C[Dab][Dab][Dab][Dab][dF]L[Dab][Dab]T; disulfide 1-14; lactam 17-C) | 0.5 | 1 | 1 | 8 | 2 | 1 | 0.25 | <1 |  |
| CCCC[C@@H]1NC(=O)[C@@H]2CCCN2C(=O)[C@H]2CCCN2C(=O)[C@H](CO)NC(=O)[C@H](C)NC(=O)[C@H](C(C)(C)C)NC(=O)[C@H](CCN)NC(=O)[C@H](Cc2c[nH]c3ccccc23)NC(=O)[C@H](CCN)NC(=O)[C@@H](CCC(=O)N[C@H]2CCNC(=O)[C@H]([C@@H](C)O)NC(=O)[C@H](CCN)NC(=O)[C@H](CCN)NC(=O)[C@H](CC(C)C)NC(=O)[C@@H](Cc3ccccc3)NC(=O)[C@H](CCN)NC2=O)NC(=O)[C@H](CCCN)NC(=O)[C@H](CCN)NC(=O)[C@H](Cc2ccc(O)cc2)NC(=O)[C@H](CO)NC1=O [Ex. 1] (I: cyclo([Nle]SY[Dab][Orn][dE][Dab]W[Dab][Tle]AS[dP]P) / II: [Dab][Dab][dF]L[Dab][Dab]T; amide I:6-II:N; lactam II:1-II:C) | 0.25 | 0.125 | 2 | 4 | 1 | 0.5 | 0.5 |  | 1 |
| CCCC[C@@H]1NC(=O)[C@@H]2CCCN2C(=O)[C@H]2CCCN2C(=O)[C@H](CO)NC(=O)[C@H](C)NC(=O)[C@H](C(C)(C)C)NC(=O)[C@H](CCN)NC(=O)[C@H](Cc2c[nH]c3ccccc23)NC(=O)[C@@H](NC(C)=O)CCNC(=O)CC[C@@H](C(=O)N[C@H](CCN)C(=O)N[C@H]2CCNC(=O)[C@H]([C@@H](C)O)NC(=O)[C@H](CCN)NC(=O)[C@H](CCN)NC(=O)[C@H](CC(C)C)NC(=O)[C@@H](CC(C)C)NC(=O)[C@H](CCN)NC2=O)NC(=O)[C@H](CCCN)NC(=O)[C@H](CCN)NC(=O)[C@H](Cc2ccc(O)cc2)NC(=O)[C@H](CO)NC1=O [Ex. 196] (Ac-[Dab]W[Dab][Tle]AS[dP]P[Nle]SY[Dab][Orn]E[dDab][Dab][Dab][dL]L[Dab][Dab]T; lactam 1-14, 16-C) | 0.125 | 0.25 | 0.5 | 0.5 | 0.125 | 0.25 | 1 |  | <1 |
